Laboratory results published in patent publication US10947260B2, “Phosphinolactone derivatives and pharmaceutical uses thereof” (INSTITUT NATIONAL DE LA SANTE ET DE LA RECHERCHE MEDICALE …, priority 2016, dated 2021).

Tests used:
APPSwe mice = test: Object recognition test, APPSwe mice; assay type: in vivo; settings: 2-month treatment
Procedure: FIG. 9: Spatial learning in pool (a-c) and object recognition (d-f) for APPSwe mice after 2-month treatment with compound 3b. Pool: acquisition profiles of WT mice treated with V and 3b (2 mg/kg) (a) or APPSwe mice (b). (c) Presence in training quadrant (T) and mean in the other quadrants (o) during trial test performed 48 h after the last training session. Friedman non-parametric ANOVA with repeated measures: Fr=21.7, p<0.001 for the group WT/V, Fr=21.8, p<0.001 for the group WT/3b at (a); Fr=13.0, p<0.05 for group APPSwe/V, Fr=12.2, p<0.05 for group APPSwe/3b at (b). […]
The apparatus consisted of four square-shaped arenas (50 cm×50 cm×50 cm in height) made of white plexiglass and placed on a platform equipped with infrared light-emitting diodes (IR). The locomotor activity of the animal and position of the nose were able to be captured by an IR-sensitive camera and analysed using Videotrack and Nosetrack software. […] Each mouse was placed in the open field and exploratory activity and nose position were recorded for 10 min. Activity was analysed in terms of number of contacts with the objects and contact time. […] Each mouse was again placed in the open field and exploratory activity recorded for 10 min. Activity was analysed in similar manner. […]

[1] = system: mice treated with scopolamine; test: Spontaneous alternation in Y-maze, scopolamine amnesia model; assay type: in vivo; settings: IP; scopolamine model
Procedure: FIG. 5: Anti-amnesic effect of compound 3b in mice treated with scopolamine: (a, b) spontaneous alternation in Y-maze, and (c, d) passive avoidance. The mice were given compound 3b (0.03-1.5 mg/kg IP) 10 min before scopolamine (0.5 mg/kg SC), 20 min before the Y-maze session or passive avoidance training. Y-maze test: (a) spontaneous alternation and (b) total number of arm entries; retention of passive avoidance: (c) step-through latency and (d) escape latency. ANOVA: F(6.94)=5.32, p<0.0001 at (a); F(6.94)=10.6, p<0.0001 at (b); H=31.4, p<0.0001 at (c); H=24.3, p<0.001 at (d); n=12-19 per group. *p<0.05, **p<0.01, ***p<0.001 compared with group (Sc.Aβ+V); #p<0.05, ##p<0.01, ###p<0.001 compared with group (Aβ25-35+V); Dunnett test at (a, b) and Dunn at (c, d).
FIG. 6: Analysis of the antagonism of anti-amnesic effects of compound 3b in mice treated with scopolamine: (a, c, e) spontaneous alternation in Y-maze, and (b, d, f) step-through latency at recall session of passive avoidance. The mice were treated with methyllycaconitine (MLA, 1 or 3 mg/kg IP), dihydro-ß-erythroidine (DHßE, 1 or 3 mg/kg IP), or NE100 (1 mg/kg IP), simultaneously with compound 3b (0.1 mg/kg IP) 10 min before scopolamine (S, 0.5 mg/kg SC), 20 min before behavioural session. ANOVA: F(5.87)=7.19, p<0.0001 at (a); H=31.3, p<0.0001 at (b); F(5.82)=5.82, p<0.0001 at (c); H=28.8, p<0.0001 at (d); F(4.77)=10.0, p<0.0001 at (e); H=30.5, p<0.0001 at (f); n=12-17 per group. *p<0.05, **p<0.01, ***p<0.001 compared with group (Sc.Aβ+V); #p<0.05, ##p<0.01, ###p<0.001 compared with group (Aβ25-35+V); Dunnett test at (a, b) and Dunn at (c, d).
The animals were tested for spontaneous alternation performance in a Y-maze, an index of spatial working memory. The Y-maze was in grey PVC. Each arm was 40 cm long, 13 cm high, 3 cm wide at the base and 10 cm wide in the upper part, and converging at an equal angle. Each mouse was placed at one end of an arm and was able to move freely through the maze during an 8-min session. The series of arm entries, including any returns in the same arm were visually analysed. Alternation is defined as being consecutive entries in three different arms. The maximum number of alternations is therefore the total number of arm entries less two, and alternation percentage is calculated as (actual alternations/maximum possible alternations)×100. […]
Finally, a first mechanistic analysis of the pharmacological effect in vivo of compound 3b was carried out. With the objective of confirming that the compound, neuroprotective against amyloid toxicity, could also be anti-amnesic in a pharmacological amnesia model, we first determined its effectiveness against the amnesic effects of scopolamine. […]

SMILES	decrease in number of contacts with objects, APPSwe animals (APPSwe mice; 1 mg/kg/d)	deficit of novel object preference (contacts, contact time), APPSwe animals (APPSwe mice; session 3)	effective dose (anti-amnesic) [1]
CC1(C)COP(=O)(c2ccc(Cl)cc2)C(C)(C)N1 (racemic) [Compound 3c, (±)-2-(4-Chlorophenyl)-2-oxo-3,3,5,5-tetramethyl-[1,4,2]-oxazaphosphinane]	blocked	significantly blocked or attenuated	
CC1(C)COP(=O)(c2cccc(Cl)c2)C(C)(C)N1 (racemic) [Compound 3b, (±)-2-(3-Chlorophenyl)-2-oxo-3,3,5,5-tetramethyl-[1,4,2]-oxazaphosphinane]			0.1 mg/kg
